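The compound was tested at five concentrations on cells cultured in 96-well plates, with a 48-hour exposure period. TGI: concentration producing complete growth inhibition.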
Legend:
Experiment in all cases: growth of human tumour cells (NCI), 48 h
A498 renal = test system: A498 renal
RPMI-8226 leukemia = test system: RPMI-8226 leukemia
HT29 colon = test system: HT29 colon
HCT-116 colon = test system: HCT-116 colon
SK-OV-3 ovarian = test system: SK-OV-3 ovarian
CCRF-CEM leukemia = test system: CCRF-CEM leukemia
KM20L2 colon = test system: KM20L2 colon
UO-31 renal = test system: UO-31 renal
OVCAR-8 ovarian = test system: OVCAR-8 ovarian
SK-MEL-28 melanoma = test system: SK-MEL-28 melanoma
DMS 114 small cell lung = test system: DMS 114 small cell lung
COLO 205 colon = test system: COLO 205 colon
NCI-H23 lung = test system: NCI-H23 lung
HOP-92 NSCLC = test system: HOP-92 NSCLC
XF 498 CNS = test system: XF 498 CNS
EKVX NSCLC = test system: EKVX NSCLC
U251 CNS = test system: U251 CNS
A549 NSCLC = test system: A549 NSCLC
HCT-15 colon = test system: HCT-15 colon
MOLT-4 leukemia = test system: MOLT-4 leukemia
IGROV1 ovarian = test system: IGROV1 ovarian
786-0 renal = test system: 786-0 renal
HOP-62 NSCLC = test system: HOP-62 NSCLC
SF-295 CNS = test system: SF-295 CNS
NCI-H522 lung = test system: NCI-H522 lung
SW-620 colon = test system: SW-620 colon
HCC-2998 colon = test system: HCC-2998 colon
SNB-75 CNS = test system: SNB-75 CNS
SNB-78 CNS = test system: SNB-78 CNS
ACHN renal = test system: ACHN renal
UACC-62 melanoma = test system: UACC-62 melanoma
HL-60(TB) leukemia = test system: HL-60(TB) leukemia
HOP-18 NSCLC = test system: HOP-18 NSCLC
DLD-1 colon = test system: DLD-1 colon
SF-268 CNS = test system: SF-268 CNS
SR leukemia = test system: SR leukemia
SF-539 CNS = test system: SF-539 CNS
RXF 393 renal = test system: RXF 393 renal
K-562 leukemia = test system: K-562 leukemia
MALME-3M melanoma = test system: MALME-3M melanoma
SN12C renal = test system: SN12C renal
UACC-257 melanoma = test system: UACC-257 melanoma
M19-MEL melanoma = test system: M19-MEL melanoma
LXFL 529 NSCLC = test system: LXFL 529 NSCLC
NCI-H226 lung = test system: NCI-H226 lung
DMS 273 small cell lung = test system: DMS 273 small cell lung
M14 melanoma = test system: M14 melanoma
SK-MEL-5 melanoma = test system: SK-MEL-5 melanoma
SNB-19 CNS = test system: SNB-19 CNS
OVCAR-4 ovarian = test system: OVCAR-4 ovarian
NCI-H460 lung = test system: NCI-H460 lung
SK-MEL-2 melanoma = test system: SK-MEL-2 melanoma
LOX IMVI melanoma = test system: LOX IMVI melanoma
KM12 colon = test system: KM12 colon
TK-10 renal = test system: TK-10 renal
OVCAR-3 ovarian = test system: OVCAR-3 ovarian
RXF-631 renal = test system: RXF-631 renal
CAKI-1 renal = test system: CAKI-1 renal
OVCAR-5 ovarian = test system: OVCAR-5 ovarian

Measured: TGI

CC(=O)OC1CC2(c3ccccc3)C(=O)c3ccccc3N2O1 (stereo unspecified)
not listed: NCI-H460 lung | SK-MEL-2 melanoma | LOX IMVI melanoma | KM12 colon | TK-10 renal | OVCAR-3 ovarian | RXF-631 renal | CAKI-1 renal | OVCAR-5 ovarian
> 100 µM: all other assays above

CC12CC[C@H](O)C(C)(C)[C@H]1CC[C@](C)(O)C2COc1ccc2ccc(=O)oc2c1 (stereo partly specified)
not listed: SK-MEL-5 melanoma | RXF-631 renal | CAKI-1 renal | OVCAR-5 ovarian
> 100 µM: all other assays above

CC(=O)OC1C(CCl)OC(N=[N+]=[N-])C(OC(C)=O)C1OC(C)=O (stereo unspecified)
not listed: HOP-92 NSCLC | SNB-78 CNS | HOP-18 NSCLC | SR leukemia | LXFL 529 NSCLC | NCI-H226 lung | LOX IMVI melanoma | OVCAR-5 ovarian
> 100 µM: all other assays above

COc1cccc(NC(=O)CC(=O)N2NC(C)C(N=Nc3cccc(C(=O)O)c3)C2=O)c1 (stereo unspecified)
not listed: XF 498 CNS | HCT-15 colon | HL-60(TB) leukemia | RXF 393 renal
> 100 µM: all other assays above
